We go through five compounds from ChEMBL document CHEMBL2203224, “Diversity of polyphenol action in Caenorhabditis elegans: between toxicity and longevity” (J Nat Prod, 2011).

The source made the active and inactive calls. The rule behind the calls is not given here.

Data set [1] relates to Caenorhabditis elegans. Description: Increase of frequency of pharyngeal pumping in Caenorhabditis elegans at 200 uM on 3rd to 9th day of adulthood. Type of data set: functional, organism-based.
The test system of data set [2] is Caenorhabditis elegans. Description: Reduction of frequency of pharyngeal pumping in Caenorhabditis elegans at 200 uM on 3rd to 9th day of adulthood. The format is functional, organism-based.
Data set [3] concerns Caenorhabditis elegans. Description: Reduction of body length of L4 larvae of Caenorhabditis elegans at 200 uM by microscopic analysis. Type of data set: functional, organism-based.
For data set [4], the system named is Caenorhabditis elegans. The data set can be described thus: Reduction of initial reproduction rate in Caenorhabditis elegans assessed as first egg deposition at 200 uM after 85 hrs. The format is functional, organism-based.
Data set [5] concerns Caenorhabditis elegans. The data set can be described thus: Increase of lifespan of L4 larvae of Caenorhabditis elegans assessed as lifespan increasing concentration after 8 hrs. Type of data set: functional.
In data set [6] the test system is Caenorhabditis elegans. The data set can be described thus: Increase of lifespan of L4 larvae of Caenorhabditis elegans after 8 hrs in presence of H2O2. Type of data set: functional, organism-based.
In data set [7] the test system is Caenorhabditis elegans. The data set can be described thus: Increase of lifespan of L4 larvae of Caenorhabditis elegans at 35 degC after 8 hrs. Type of data set: functional, organism-based.
Data set [8] deals with Caenorhabditis elegans. Description: Increase of lifespan of L4 larvae of Caenorhabditis elegans after 8 hrs. The format is functional, organism-based.
In data set [9] the test system is Caenorhabditis elegans. The data set can be described thus: Increase of lifespan of Caenorhabditis elegans assessed as ascorbic acid equivalent of water soluble antioxidant metabolites at 200 uM by photochemiluminescence assay. The format is functional, organism-based.
Data set [10] concerns Caenorhabditis elegans. Description: Increase of lifespan of Caenorhabditis elegans assessed as trolox equivalent of lipid soluble antioxidant metabolites at 200 uM by photochemiluminescence assay. The format is functional, organism-based.
Data set [11] concerns Caenorhabditis elegans. The data set can be described thus: Toxicity in L4 larvae of Caenorhabditis elegans at 800 uM after 8 hrs. Type of data set: organism-based. The conditions noted are these: in vivo.
In data set [12] the test system is Caenorhabditis elegans. The data set can be described thus: […] assessed as ascorbic acid equivalent of water soluble antioxidant metabolites at 50 uM by photochemiluminescence assay. Type of data set: functional, organism-based.
Data set [13] deals with Caenorhabditis elegans. Description: Reduction of frequency of pharyngeal pumping in Caenorhabditis elegans at 50 uM on 3rd to 9th day of adulthood. The format is functional, organism-based.
In data set [14] the test system is Caenorhabditis elegans. Description: Reduction of initial reproduction rate in Caenorhabditis elegans assessed as first egg deposition at 50 uM after 85 hrs. Type of data set: functional, organism-based.
Data set [15] deals with Caenorhabditis elegans. Description: Reduction of body length of L4 larvae of Caenorhabditis elegans at 50 uM by microscopic analysis. Type of data set: functional, organism-based.
Data set [16] has as its system Caenorhabditis elegans. Description: Increase of lifespan of L4 larvae of Caenorhabditis elegans at 50 uM in presence of heat killed bacteria. Type of data set: functional, organism-based.
In data set [17] the test system is Caenorhabditis elegans. The data set can be described thus: […] assessed as ascorbic acid equivalent of water soluble antioxidant metabolites at 300 uM by photochemiluminescence assay. Type of data set: functional, organism-based.
Data set [18] concerns Caenorhabditis elegans. The data set can be described thus: […] assessed as trolox equivalent of lipid soluble antioxidant metabolites at 300 uM by photochemiluminescence assay. Type of data set: functional, organism-based.
Data set [19] deals with Caenorhabditis elegans. The data set can be described thus: Increase of median lifespan of L4 larvae of Caenorhabditis elegans harboring eat-2 (ad465) at 300 uM after 8 hrs. The format is functional.
The test system of data set [20] is Caenorhabditis elegans. Description: Increase of mean lifespan of L4 larvae of Caenorhabditis elegans harboring eat-2 (ad465) at 300 uM after 8 hrs. The format is functional.
For data set [21], the system named is Caenorhabditis elegans. Description: Increase of frequency of pharyngeal pumping in Caenorhabditis elegans at 300 uM on 9th day of adulthood. The format is functional, organism-based.
The test system of data set [22] is Caenorhabditis elegans. The data set can be described thus: Reduction of frequency of pharyngeal pumping in Caenorhabditis elegans at 300 uM on 3rd to 9th day of adulthood. The format is functional, organism-based.
In data set [23] the test system is Caenorhabditis elegans. Description: Reduction of initial reproduction rate in Caenorhabditis elegans assessed as first egg deposition at 300 uM after 85 hrs. Type of data set: functional, organism-based.
Data set [24] relates to Caenorhabditis elegans. The data set can be described thus: Increase of body length of L4 larvae of Caenorhabditis elegans at 300 uM by microscopic analysis. Type of data set: functional, organism-based.
Data set [25] concerns Caenorhabditis elegans. Description: Increase of lifespan of L4 larvae of Caenorhabditis elegans at 300 uM in presence of heat killed bacteria. The format is functional, organism-based.
Data set [26] concerns Caenorhabditis elegans. Description: Increase of lifespan of L4 larvae of Caenorhabditis elegans at 300 uM after 8 hrs in presence of H2O2. The format is functional, organism-based.
Data set [27] relates to Caenorhabditis elegans. Description: Increase of lifespan of L4 larvae of Caenorhabditis elegans at 300 uM at 35 degC after 8 hrs. Type of data set: functional, organism-based.
The subject of data set [28] is Caenorhabditis elegans. Description: […] assessed as ascorbic acid equivalent of water soluble antioxidant metabolites at 100 uM by photochemiluminescence assay. The format is functional, organism-based.
The subject of data set [29] is Caenorhabditis elegans. Description: […] assessed as trolox equivalent of lipid soluble antioxidant metabolites at 100 uM by photochemiluminescence assay. Type of data set: functional, organism-based.
Data set [30] relates to Caenorhabditis elegans. Description: Reduction of triglyceride level in Caenorhabditis elegans at 100 uM. The format is functional, organism-based.
Data set [31] deals with Caenorhabditis elegans. Description: Reduction of frequency of pharyngeal pumping in Caenorhabditis elegans at 100 uM on 3rd to 9th day of adulthood. Type of data set: functional, organism-based.
The subject of data set [32] is Caenorhabditis elegans. The data set can be described thus: Reduction of initial reproduction rate in Caenorhabditis elegans assessed as first egg deposition at 100 uM after 85 hrs. The format is functional, organism-based.
For data set [33], the system named is Caenorhabditis elegans. Description: Reduction of body length of L4 larvae of Caenorhabditis elegans at 100 uM by microscopic analysis. Type of data set: functional, organism-based.
Data set [34] has as its system Caenorhabditis elegans. Description: Increase of mean lifespan of L4 larvae of wild type Caenorhabditis elegans at 100 uM after 8 hrs. Type of data set: functional.
The subject of data set [35] is Caenorhabditis elegans. Description: Increase of mean lifespan of L4 larvae of Caenorhabditis elegans harboring mev-1 (kn1) mutant at 100 uM after 8 hrs. Type of data set: functional.

`Oc1cc(O)c2c(c1)OC(c1ccc(O)c(O)c1)C(O)C2` (stereo not drawn) [CATECHIN]: the result in the data set with Caenorhabditis elegans [1], in the data set on Caenorhabditis elegans [3], in the data set with Caenorhabditis elegans [6], with Caenorhabditis elegans [7] and in the data set with Caenorhabditis elegans [8] was Active. Moreover, the result in the data set with Caenorhabditis elegans [2], with Caenorhabditis elegans [4], in the data set on Caenorhabditis elegans [9] and in the data set with Caenorhabditis elegans [10] was inactive. The Activity in the data set with Caenorhabditis elegans [5] worked out at 200 µM.
For `Oc1cc(O)c2c(c1)O[C@H](c1ccc(O)c(O)c1)[C@@H](O)C2` [CATECHIN], in the data set on Caenorhabditis elegans [11], the Activity result is “Non-toxic”.
As to `O=c1oc2c(O)c(O)cc3c(=O)oc4c(O)c(O)cc1c4c23` [ELLAGIC ACID], the outcome in the data set with Caenorhabditis elegans [12], in the data set on Caenorhabditis elegans [14], in the data set with Caenorhabditis elegans [15] and in the data set on Caenorhabditis elegans [16] was Active. In addition, the outcome in the data set on Caenorhabditis elegans [13] and in the data set with Caenorhabditis elegans [6] was inactive. Besides, the Activity with Caenorhabditis elegans [5] was 50 µM; in the data set on Caenorhabditis elegans [11], “Toxic”.
For the compound `O=C(O)c1cc(O)c(O)c(O)c1` [GALLIC ACID], the result in the data set on Caenorhabditis elegans [17], in the data set with Caenorhabditis elegans [18], with Caenorhabditis elegans [22], in the data set on Caenorhabditis elegans [26] and in the data set with Caenorhabditis elegans [27] was inactive. The Activity was 11% with Caenorhabditis elegans [19], 7% in the data set on Caenorhabditis elegans [20], 300 µM with Caenorhabditis elegans [5] and “Non-toxic” in the data set on Caenorhabditis elegans [11]. The outcome in the data set on Caenorhabditis elegans [21], in the data set with Caenorhabditis elegans [23], in the data set on Caenorhabditis elegans [24], in the data set with Caenorhabditis elegans [25], with Caenorhabditis elegans [6] and in the data set on Caenorhabditis elegans [7] was Active. The result in the data set on Caenorhabditis elegans [8] was Active.
Consider `O=C(OC[C@H]1O[C@@H](OC(=O)c2cc(O)c(O)c(OC(=O)c3cc(O)c(O)c(O)c3)c2)[C@H](OC(=O)c2cc(O)c(O)c(OC(=O)c3cc(O)c(O)c(O)c3)c2)[C@@H](OC(=O)c2cc(O)c(O)c(OC(=O)c3cc(O)c(O)c(O)c3)c2)[C@@H]1OC(=O)c1cc(O)c(O)c(OC(=O)c2cc(O)c(O)c(O)c2)c1)c1cc(O)c(O)c(OC(=O)c2cc(O)c(O)c(O)c2)c1` [TANNIC ACID], for which the result in the data set with Caenorhabditis elegans [28], in the data set with Caenorhabditis elegans [29], in the data set with Caenorhabditis elegans [30], in the data set on Caenorhabditis elegans [32], in the data set with Caenorhabditis elegans [33] and with Caenorhabditis elegans [7] was Active. In addition, the outcome in the data set on Caenorhabditis elegans [8] was Active. Further, the result with Caenorhabditis elegans [31] and with Caenorhabditis elegans [6] was inactive. Further, the Activity in the data set on Caenorhabditis elegans [5] was 100 µM; in the data set on Caenorhabditis elegans [11], “Toxic”; with Caenorhabditis elegans [34] it was 17.6%; with Caenorhabditis elegans [35], 3.2%.
